# Measured values published in patent US9708334B2, “Substituted 2,4,5,6-tetrahydropyrrolo[3,4-c]pyrazole and 4,5,6,7-tetrahydro-2H-pyrazolo[4,3-c]pyridine compounds as GlyT1 inhibitors” (DART NEUROSCIENCE (CAYMAN) LTD., priority 2014, dated 2017).
# Biological target: T1, GlyT1 (Homo sapiens, UniProt P48067)
# T1 construct: expressed in transfected cells
# T1 sequence (P48067 1-706): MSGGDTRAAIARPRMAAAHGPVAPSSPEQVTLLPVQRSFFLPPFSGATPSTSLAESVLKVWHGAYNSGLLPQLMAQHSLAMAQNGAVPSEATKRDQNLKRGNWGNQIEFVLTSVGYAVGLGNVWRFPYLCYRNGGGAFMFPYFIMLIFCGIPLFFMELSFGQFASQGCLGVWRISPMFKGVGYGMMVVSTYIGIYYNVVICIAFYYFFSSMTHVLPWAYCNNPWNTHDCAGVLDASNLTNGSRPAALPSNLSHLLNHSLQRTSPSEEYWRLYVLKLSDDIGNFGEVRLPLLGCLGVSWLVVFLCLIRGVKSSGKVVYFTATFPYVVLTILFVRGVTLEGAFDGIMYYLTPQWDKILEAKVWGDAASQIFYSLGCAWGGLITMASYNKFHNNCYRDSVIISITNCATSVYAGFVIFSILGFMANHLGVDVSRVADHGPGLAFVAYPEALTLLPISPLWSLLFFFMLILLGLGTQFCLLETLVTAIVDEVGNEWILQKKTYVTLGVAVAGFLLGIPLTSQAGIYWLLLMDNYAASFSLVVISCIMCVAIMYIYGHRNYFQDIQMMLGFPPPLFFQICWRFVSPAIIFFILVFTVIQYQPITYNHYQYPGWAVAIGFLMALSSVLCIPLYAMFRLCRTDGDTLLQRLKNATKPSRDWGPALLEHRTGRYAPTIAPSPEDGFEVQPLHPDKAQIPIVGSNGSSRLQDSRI
# Test: Glycine Transporter 1 (GlyT1) uptake assay, scintillation proximity assay of [14C]-glycine uptake
# Assay type: cell-based
# Conditions: SPA, four parameter logistic fit, read-out: GlyT1 (pIC50) (converted)
# Experimental: Glycine Transporter 1 (GlyT1) Uptake Assay
# Plates were then read on a MicroBeta plate counter (Perkin Elmer). Dose-response data for tested compounds were analyzed and curves were fit using a four parameter logistic fit to determine IC50 values. […]
row,Compound,IC50
1,"CC(C)Oc1ccc(S(C)(=O)=O)cc1C(=O)N1Cc2cn(-c3ccc(F)cc3)nc2C1 [Example 1, (2-(4-Fluorophenyl)pyrrolo[3,4-c]pyrazol-5(2H,4H,6H)-yl)(2-isopropoxy-5-(methylsulfonyl)phenyl)methanone]",< 100 nM
2,"CC(C)Oc1ccc(S(C)(=O)=O)cc1C(=O)N1Cc2cn(-c3ccc(F)c(F)c3)nc2C1 [Example 2, (2-(3,4-Difluorophenyl)pyrrolo[3,4-c]pyrazol-5(2H,4H,6H)-yl)(2-isopropoxy-5-(methylsulfonyl)phenyl)methanone]",< 100 nM
3,"Cc1cc(-n2cc3c(n2)CN(C(=O)c2cc(C#N)ccc2OCC(C)(C)C)C3)ccn1 [Example 3, 3-(2-(2-Methylpyridin-4-yl)-2,4,5,6-tetrahydropyrrolo[3,4-c]pyrazole-5-carbonyl)-4-(neopentyloxy)benzonitrile]",< 100 nM
4,"COc1c(C#N)ccc(OC(C)C(F)(F)F)c1C(=O)N1CCc2nn(-c3ccc(F)cc3)cc2C1 (stereo not drawn) [Example 4, 3-(2-(4-Fluorophenyl)-4,5,6,7-tetrahydro-2H-pyrazolo[4,3-c]pyridine-5-carbonyl)-2-methoxy-4-((1,1,1-trifluoropropan-2-yl)oxy)benzonitrile]",100 to 1000 nM
5,"CC(Oc1ccc(C(=O)O)c(Cl)c1C(=O)N1Cc2cn(-c3ccc(F)cc3)nc2C1)C(F)(F)F (stereo not drawn) [Example 5, 2-Chloro-3-(2-(4-fluorophenyl)-2,4,5,6-tetrahydropyrrolo[3,4-c]pyrazole-5-carbonyl)-4-((1,1,1-trifluoropropan-2-yl)oxy)benzoic acid]",> 10000 nM
6,"CC(Oc1ccc(C(=O)N2CCC2)c(Cl)c1C(=O)N1CCc2nn(-c3ccc(F)cc3)cc2C1)C(F)(F)F (stereo not drawn) [Example 6, 1-{2-Chloro-3-[2-(4-fluorophenyl)-2H 4H 5H 6H 7H-pyrazolo[4,3-c]pyridine-5-carbonyl]-4-[(1 1 1-trifluoropropan-2-yl)oxy]benzoyl}azetidine]",> 10000 nM
7,"CC(Oc1ccc(C(N)=O)cc1C(=O)N1CCc2nn(-c3ccc(F)cc3)cc2C1)C(F)(F)F (stereo not drawn) [Example 7, 3-(2-(4-Fluorophenyl)-4,5,6,7-tetrahydro-2H-pyrazolo[4,3-c]pyridine-5-carbonyl)-4-((1,1,1-trifluoropropan-2-yl)oxy)benzamide]",1000 to 10000 nM
8,"Cc1cc(-n2cc3c(n2)CN(C(=O)c2cc(C#N)ccc2-c2cccc(F)c2)C3)ccn1 [Example 8, 4-(3-Fluorophenyl)-3-[2-(2-methylpyridin-4-yl)-2H 4H 5H 6H-pyrrolo[3,4-c]pyrazole-5-carbonyl]benzonitrile]",< 100 nM
9,"CC(Oc1ccc(C#N)cc1C(=O)N1Cc2cn(-c3ccc(F)cc3)nc2C1)C(F)F (stereo not drawn) [Example 9, 4-((1,1-Difluoropropan-2-yl)oxy)-3-(2-(4-fluorophenyl)-2,4,5,6-tetrahydropyrrolo[3,4-c]pyrazole-5-carbonyl)benzonitrile]",< 100 nM
10,"COc1c(C#N)ccc(CCC(C)(C)C)c1C(=O)N1Cc2cn(-c3ccc(F)cc3)nc2C1 [Example 10, 4-(3,3-Dimethylbutyl)-3-(2-(4-fluorophenyl)-2,4,5,6-tetrahydropyrrolo[3,4-c]pyrazole-5-carbonyl)-2-methoxybenzonitrile]",100 to 1000 nM
11,"COc1c(C#N)ccc(OC(C)C(F)F)c1C(=O)N1Cc2cn(-c3ccc(F)cc3)nc2C1 (stereo not drawn) [Example 11, 4-[(1 1-Difluoropropan-2-yl)oxy]-3-[2-(4-fluorophenyl)-2H 4H 5H 6H-pyrrolo[3,4-c]pyrazole-5-carbonyl]-2-methoxybenzonitrile]",< 100 nM
12,"COc1c(C#N)ccc(C2(F)CCC(F)(F)CC2)c1C(=O)N1CCc2nn(-c3ccc(F)cn3)cc2C1 [Example 12, 3-[2-(5-Fluoropyridin-2-yl)-2H 4H 5H 6H 7H-pyrazolo[4,3-c]pyridine-5-carbonyl]-2-methoxy-4-(1 4 4-trifluorocyclohexyl)benzonitrile]",100 to 1000 nM
13,"COc1c(C#N)ccc(C2(F)CCC(F)(F)CC2)c1C(=O)N1CCc2nn(-c3cccnc3)cc2C1 [Example 13, 2-Methoxy-3-[2-(pyridin-3-yl)-2H 4H 5H 6H 7H-pyrazolo[4,3-c]pyridine-5-carbonyl]-4-(1 4 4-trifluorocyclohexyl)benzonitrile]",1000 to 10000 nM

# The remaining lines, values ahead:
row,IC50,Compound
1,100 to 1000 nM,"CC(C)Oc1cc(-n2cc3c(n2)CN(C(=O)c2cc(C#N)ccc2OC(C)C(F)(F)F)C3)ccn1 (stereo in doubt) [Example 372, 3-{2-[2-(Propan-2-yloxy)pyridin-4-yl]-2H 4H 5H 6H-pyrrolo[3,4-c]pyrazole-5-carbonyl}-4-{[(2S)-1 1 1-trifluoropropan-2-yl]oxy}benzonitrile]"
2,< 100 nM,"CCC(C)Cn1cc2c(n1)CN(C(=O)c1cc(S(C)(=O)=O)ccc1N1CCC(F)(F)CC1)C2 (stereo in doubt) [Example 429, 4 4-Difluoro-1-(4-methanesulfonyl-2-{2-[(2S)-2-methylbutyl]-2H 4H 5H 6H-pyrrolo[3,4-c]pyrazole-5-carbonyl}phenyl)piperidine]"
3,100 to 1000 nM,"COc1c(C#N)ccc(C2(F)CCOCC2)c1C(=O)N1CCc2nn(-c3ccc(F)cn3)cc2C1 [Example 14, 4-(4-Fluorooxan-4-yl)-3-[2-(5-fluoropyridin-2-yl)-2H 4H 5H 6H 7H-pyrazolo[4,3-c]pyridine-5-carbonyl]-2-methoxybenzonitrile]"
4,100 to 1000 nM,"COc1c(C#N)ccc(C2(F)CCC(F)(F)CC2)c1C(=O)N1Cc2cn(-c3ccc(F)cn3)nc2C1 [Example 15, 3-[2-(5-Fluoropyridin-2-yl)-2H 4H 5H 6H-pyrrolo[3,4-c]pyrazole-5-carbonyl]-2-methoxy-4-(1 4 4-trifluorocyclohexyl)benzonitrile]"
5,< 100 nM,"COc1cc(-n2cc3c(n2)CN(C(=O)c2c(O[C@@H](C)C(F)(F)F)ccc(C#N)c2Cl)C3)ccn1 [Example 16, 2-Chloro-3-[2-(2-methoxypyridin-4-yl)-2H 4H 5H 6H-pyrrolo[3,4-c]pyrazole-5-carbonyl]-4-{[(2S)-1 1 1-trifluoropropan-2-yl]oxy}benzonitrile]"
6,< 100 nM,"Cc1cc(-n2cc3c(n2)CN(C(=O)c2c(O[C@@H](C)C(F)(F)F)ccc(C#N)c2Cl)C3)ccn1 [Example 17, 2-Chloro-3-[2-(2-methylpyridin-4-yl)-2H 4H 5H 6H-pyrrolo[3,4-c]pyrazole-5-carbonyl]-4-{[(2S)-1 1 1-trifluoropropan-2-yl]oxy}benzonitrile]"
7,< 100 nM,"COc1c(C#N)ccc(O[C@@H](C)C(F)(F)F)c1C(=O)N1Cc2cn(-c3ccnc(C)c3)nc2C1 [Example 18, 2-Methoxy-3-[2-(2-methylpyridin-4-yl)-2H 4H 5H 6H-pyrrolo[3,4-c]pyrazole-5-carbonyl]-4-{[(2S)-1 1 1-trifluoropropan-2-yl]oxy}benzonitrile]"
8,< 100 nM,"Cc1cccc(-n2cc3c(n2)CN(C(=O)c2c(O[C@@H](C)C(F)(F)F)ccc(C#N)c2Cl)C3)n1 [Example 19, 2-Chloro-3-[2-(6-methylpyridin-2-yl)-2H 4H 5H 6H-pyrrolo[3,4-c]pyrazole-5-carbonyl]-4-{[(2S)-1 1 1-trifluoropropan-2-yl]oxy}benzonitrile]"
9,100 to 1000 nM,"COc1c(C#N)ccc(C2(F)CCC2)c1C(=O)N1Cc2cn(-c3cccc(C)n3)nc2C1 [Example 20, 4-(1-Fluorocyclobutyl)-2-methoxy-3-[2-(6-methylpyridin-2-yl)-2H 4H 5H 6H-pyrrolo[3,4-c]pyrazole-5-carbonyl]benzonitrile]"
10,100 to 1000 nM,"COc1c(C#N)ccc(C2(F)CCOCC2)c1C(=O)N1Cc2cn(-c3cccc(C)n3)nc2C1 [Example 21, 4-(4-Fluorooxan-4-yl)-2-methoxy-3-[2-(6-methylpyridin-2-yl)-2H 4H 5H 6H-pyrrolo[3,4-e]pyrazole-5-carbonyl]benzonitrile]"
11,100 to 1000 nM,"Cc1cccc(-n2cc3c(n2)CN(C(=O)c2c(OCC(F)(F)F)ccc(C#N)c2Cl)C3)n1 [Example 22, 2-Chloro-3-[2-(6-methylpyridin-2-yl)-2H 4H 5H 6H-pyrrolo[3,4-c]pyrazole-5-carbonyl]-4-(2 2 2-trifluoroethoxy)benzonitrile]"
12,100 to 1000 nM,"COc1c(C#N)ccc(C2(F)CCC2)c1C(=O)N1Cc2cn(-c3cncc(F)c3)nc2C1 [Example 23, 4-(1-Fluorocyclobutyl)-3-[2-(5-fluoropyridin-3-yl)-2H 4H 5H 6H-pyrrolo[3,4-c]pyrazole-5-carbonyl]-2-methoxybenzonitrile]"
13,100 to 1000 nM,"COc1c(C#N)ccc(C2(F)CCOCC2)c1C(=O)N1Cc2cn(-c3cncc(F)c3)nc2C1 [Example 24, 4-(4-Fluorooxan-4-yl)-3-[2-(5-fluoropyridin-3-yl)-2H 4H 5H 6H-pyrrolo[3,4-c]pyrazole-5-carbonyl]-2-methoxybenzonitrile]"
14,100 to 1000 nM,"N#Cc1ccc(OCC(F)(F)F)c(C(=O)N2Cc3cn(-c4cncc(F)c4)nc3C2)c1Cl [Example 25, 2-Chloro-3-[2-(5-fluoropyridin-3-yl)-2H 4H 5H 6H-pyrrolo[3,4-c]pyrazole-5-carbonyl]-4-(2 2 2-trifluoroethoxy)benzonitrile]"
